These results are taken from patent publication US11608341B2, “Substituted tetrahydropyrazolo[3,4-d]pyrimidines and tetrahydropyrazolo[4,3-d]pyrimidines as C5A receptor modulators” (Idorsia Pharmaceuticals Ltd., priority 2018, dated 2023).

Molecules are shown by their SMILES.

The term IC50 denotes the concentration needed to halve the response being measured.

This experiment concerns the target T1, C5AR1 (Homo sapiens, UniProt P21730).
T1 construct: host or cells: CHO-K1
T1 sequence (P21730 1-350): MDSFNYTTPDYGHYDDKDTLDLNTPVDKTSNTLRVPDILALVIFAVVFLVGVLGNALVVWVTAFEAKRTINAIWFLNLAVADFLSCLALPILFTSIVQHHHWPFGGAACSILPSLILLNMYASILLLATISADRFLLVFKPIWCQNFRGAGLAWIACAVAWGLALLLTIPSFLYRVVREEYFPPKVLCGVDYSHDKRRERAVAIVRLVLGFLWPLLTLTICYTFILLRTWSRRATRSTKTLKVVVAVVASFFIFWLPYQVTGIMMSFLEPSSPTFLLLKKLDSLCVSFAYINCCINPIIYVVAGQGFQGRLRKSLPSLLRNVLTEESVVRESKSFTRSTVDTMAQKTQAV
As to the kind of experiment: In vitro assay: antagonism of C5a-induced beta-arrestin recruitment (PathHunter) in CHO-K1 C5AR1 beta-arrestin cell line. The class given is cell-based. The note with it: antagonistic activity, 1-10 nM C5a agonist, geometric mean where several measurements, read-out: C5aR IC50. A digest of the protocol:
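Antagonist or DMSO added first, then C5a (1-10 nM, added at 6-fold end concentration), 1.5 h at 37 °C. PathHunter detection reagent was added for 45 min at RT before plate reading. IC50s come from antagonist serial dilutions in nmol/l and are geometric means of several measurements.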
Background: Recruitment of arrestin is a read-out of receptor activation apart from second messengers.
Take `Cc1cccc(F)c1N1CCC(N2C(=O)N(Cc3ccccc3C(F)(F)F)c3nn(C4CC4)cc3C2C)CC1` (single isomer, unassigned) [Example 309]: the IC50 was found to be 11 nM. Then `Cc1cccc(F)c1N1CCC(N2Cc3cn(CCN4CCCCC4)nc3N(Cc3ccccc3C(F)(F)F)C2=O)CC1` [Example 63], with 91 nM. Consider `CC(=O)N1CCCC1Cn1cc2c(n1)N(Cc1ccccc1C(F)(F)F)C(=O)N(C1CCN(c3c(C)cccc3F)CC1)C2` (centres unmarked) [Example 115], for which the IC50 is 137 nM.

On to `Cc1ccnc(C#N)c1N1CCC(N2Cc3cn(C)nc3N(Cc3ccccc3C(F)(F)F)C2=O)CC1` [Example 85], for which the IC50 was 34 nM. Next, `Cc1cccc(F)c1N1CCC(N2Cc3cn(C(=O)N(C)CC(C)C)nc3N(Cc3ccccc3C(F)(F)F)C2=O)CC1` [Example 150]: 767 nM; `COC(=O)N1CC(n2cc3c(n2)N(Cc2ccccc2C(F)(F)F)C(=O)N(C2CCN(c4c(C)cccc4F)CC2)C3)C1` [Example 117]: 33 nM. `Cc1cccc(F)c1N1CCC(N2C(=O)N(Cc3ccccc3C(F)(F)F)c3nn(C4CC4)cc3C2C)CC1` (single isomer, unassigned) [Example 310]: the IC50 turned out to be 30 nM.

For `Cc1cccnc1N1CCC(N2Cc3cn(C)nc3N(Cc3ccccc3C(F)(F)F)C2=O)CC1` [Example 69], the IC50 came out at 38 nM. `COc1nccc(C)c1N1CCC(N2Cc3c(cnn3COCC[Si](C)(C)C)N(Cc3ccccc3C(F)(F)F)C2=O)CC1` [Example 216]: the IC50 turned out to be 41 nM. Regarding `Cc1cccc(F)c1N1CCC(N2Cc3cn(C4CCNC4)nc3N(Cc3ccccc3C(F)(F)F)C2=O)CC1` (centres unmarked) [Example 94], the IC50 amounted to 727 nM. For the compound `Cc1cccc(F)c1N1CCC(N2C(=O)N(Cc3ccccc3C(F)(F)F)c3cn(CC(C)(F)F)nc3C2C)CC1` (single isomer, unassigned) [Example 253], the IC50 stood at 16 nM. With `Cc1cccc(F)c1N1CCC(N2Cc3cn(C)nc3N(Cc3cncnc3C(C)C)C2=O)CC1` [Example 249], the IC50 was 69 nM. Then `CC1c2nn(C3CC3)cc2N(Cc2ccccc2C(F)(F)F)C(=O)N1C1CCN(c2c(F)cccc2C(F)F)CC1` (single isomer, unassigned) [Example 329], with 18 nM; and `COc1nccc(Cl)c1N1CCC(N2C(=O)N(Cc3ccccc3C3CC3)c3nn(C)cc3C2C)CC1` (single isomer, unassigned) [Example 379], with 412 nM; and `Cc1cccc(F)c1N1CCC(N2Cc3cn(CCO)nc3N(Cc3ccccc3C(F)(F)F)C2=O)CC1` [Example 20], with 12 nM. Next, `COc1nccc(C)c1N1CCC(N2Cc3nn(CC(C)(F)F)cc3N(Cc3ccccc3C(F)(F)F)C2=O)CC1` [Example 219]: 38 nM; `CNC(=O)N1CC(n2cc3c(n2)N(Cc2ccccc2C(F)(F)F)C(=O)N(C2CCN(c4c(C)cccc4F)CC2)C3)C1` [Example 120]: 1350 nM; `Cc1cccc(F)c1N1CCC(N2C(=O)N(Cc3ccccc3C3CC3)c3nn(C)cc3C2C)CC1` (single isomer, unassigned) [Example 317]: 11 nM.

For the compound `Cc1cccc(F)c1N1CCC(N2Cc3cn(C4CN(C(=O)OC(C)C)C4)nc3N(Cc3ccccc3C(F)(F)F)C2=O)CC1` [Example 127], the IC50 turned out to be 14 nM.

Regarding `COc1nccc(C)c1N1CCC(N2Cc3cn(COCC[Si](C)(C)C)nc3N(Cc3ccccc3C(F)(F)F)C2=O)CC1` [Example 196], the IC50 was found to be 11 nM.

For the compound `COc1nccc(C)c1N1CCC(N2C(=O)N(Cc3ccccc3C3CC3)c3nn(C4CC4)cc3C2C)CC1` (single isomer, unassigned) [Example 381], the half-maximal inhibitory concentration (IC50) was 190 nM. Next, `Cc1cccc(F)c1N1CCC(N2Cc3cn(CC4CC4)nc3N(Cc3ccccc3C(F)(F)F)C2=O)CC1` [Example 165]: 8 nM; `COc1nccc(C(F)(F)F)c1N1CCC(N2C(=O)N(Cc3ccccc3C(F)(F)F)c3nn(C)cc3C2C)CC1` (single isomer, unassigned) [Example 362]: 9 nM. Consider `CC1c2c[nH]nc2N(Cc2ccccc2C(F)(F)F)C(=O)N1C1CCN(c2c(F)cccc2C(F)F)CC1` (single isomer, unassigned) [Example 348], for which the IC50 was 11 nM. On to `CC1c2cn(C)nc2N(Cc2ccccc2C(F)(F)F)C(=O)N1C1CCN(c2c(F)cccc2Cl)CC1` (single isomer, unassigned) [Example 320], for which the IC50 came out at 325 nM. Then `Cc1cccc(F)c1N1CCC(N2C(=O)N(Cc3ccccc3C3CC3)c3nn(C4CC4)cc3C2C)CC1` (single isomer, unassigned) [Example 340], with 67 nM; and `Cn1cc2c(n1)N(Cc1ccccc1C1CC1)C(=O)N(C1CCN(c3c(F)cccc3C(F)F)CC1)C2` [Example 308], with 22 nM. Then `Cc1cccc(F)c1N1CCC(N2C(=O)N(Cc3ccccc3C3CC3)c3cn(C4CC4)nc3C2C)CC1` (single isomer, unassigned) [Example 279], with 28 nM; and `Cc1cccc(F)c1N1CCC(N2Cc3cn(C(C)C)nc3N(Cc3ccccc3C(F)(F)F)C2=O)CC1` [Example 161], with 7 nM; and `COc1nccc(C(F)(F)F)c1N1CCC(N2C(=O)N(Cc3ccccc3C3CC3)c3nn(C)cc3C2C)CC1` (single isomer, unassigned) [Example 375], with 146 nM. Consider `Cc1cccc(F)c1N1CCC(N2C(=O)N(Cc3ccccc3C(F)(F)F)c3c[nH]nc3C2C)CC1` (single isomer, unassigned) [Example 263], for which the IC50 was determined as 21 nM. On to `COc1nccc(C(F)(F)F)c1N1CCC(N2C(=O)N(Cc3ccccc3C3CC3)c3nn(C)cc3C2C)CC1` (single isomer, unassigned) [Example 374], for which the IC50 came to 8 nM.
